In ChEMBL document CHEMBL3784920, “Synthesis and Pharmacological Evaluation of Novel Adenine-Hydrogen Sulfide Slow Release Hybrids Designed as Multitarget Cardioprotective Agents” (J Med Chem, 2016):
The source made the active and inactive calls. The calls are words filed in the database; no cut-off is given here.

Key:
RLF-6 [1] = test: Induction of H2S release in RLF-6 cells assessed as cGMP accumulation after 5 mins by enzyme immuno assay; assay type: functional, cell-based; details: Rattus norvegicus
Oryctolagus cuniculus [2] = test: Toxicity in New Zealand white rabbit assessed as heart weight at 1.79 umol/kg, administered as single bolus dose (reference value: 7.2 +/- 0.3 g); assay type: organism-based; details: in vivo
Oryctolagus cuniculus [3] = test: Toxicity in New Zealand white rabbit assessed as baseline heart rate at 1.79 umol/kg, administered as single bolus dose (reference value: 269 +/- 10 bpm); assay type: organism-based; details: in vivo
Oryctolagus cuniculus [4] = test: Toxicity in New Zealand white rabbit myocardial ischemia/reperfusion injury model assessed as heart rate at 1.79 umol/kg, administered as single bolus dose at 20 mins of sustained ischemia (reference value: 276 +/- 9 bpm); assay type: organism-based; details: in vivo
Oryctolagus cuniculus [5] = test: Toxicity in New Zealand white rabbit myocardial ischemia/reperfusion injury model assessed as heart rate at 1.79 umol/kg, administered as single bolus dose at 180 mins of reperfusion (reference value: 254 +/- 11 bpm); assay type: organism-based; details: in vivo, 3 h
Oryctolagus cuniculus [6] = test: Toxicity in New Zealand white rabbit assessed as baseline mean blood pressure at 1.79 umol/kg, administered as single bolus dose (reference value: 74 +/- 5 mmHg); assay type: organism-based; details: in vivo
Oryctolagus cuniculus [7] = test: Toxicity in New Zealand white rabbit myocardial ischemia/reperfusion injury model assessed as mean blood pressure at 1.79 umol/kg, administered as single bolus dose at 20 mins of sustained ischemia (reference value: 64 +/- 5 mmHg); assay type: organism-based; details: in vivo
Oryctolagus cuniculus [8] = test: Toxicity in New Zealand white rabbit myocardial ischemia/reperfusion injury model assessed as mean blood pressure at 1.79 umol/kg, administered as single bolus dose at 180 mins of reperfusion (reference value: 60 +/- 4 mmHg); assay type: organism-based; details: in vivo, iv, 3 h
Oryctolagus cuniculus [9] = test: (§1) Cardioprotective activity in New Zealand white rabbit myocardial ischemia/reperfusion injury model assessed as reduction in infarct size at 1.79 umol/kg, administered as single bolus dose at 20th min of sustained ischemia by TTC staining (reference value: 47.9 +/- 0.7 %); assay type: functional, Myocardium; design: scale not given: the % may be the effect or the level left
[10] = Induction of H2S release in potassium phosphate buffer at pH 7.4 after 15 mins by methylene-blue assay; assay type: physicochemical; details: pH 7.4, 0.25 h
RLF-6 [11] = test: Induction of H2S release in RLF-6 cells assessed as cGMP accumulation at 250 uM after 5 mins by enzyme immuno assay; assay type: functional, cell-based; details: Rattus norvegicus
Oryctolagus cuniculus [12] = test: Cardioprotective activity in New Zealand white rabbit myocardial ischemia/reperfusion injury model assessed as reduction in infarct size at 3.58 umol/kg, administered as single bolus dose at 20th min of sustained ischemia by TTC staining (reference value: 47.9 +/- 0.7 %); assay type: functional, Myocardium; design: scale not given: the % may be the effect or the level left
Oryctolagus cuniculus [13] = test: Toxicity in New Zealand white rabbit assessed as heart weight at 1.79 umol/kg, administered as single bolus dose in presence of non selective adenosine receptor inhibitor SPT (reference value: 7.2 +/- 0.3 g); assay type: organism-based; details: in vivo
Oryctolagus cuniculus [14] = test: Toxicity in New Zealand white rabbit assessed as heart weight at 3.58 umol/kg, administered as single bolus dose (reference value: 7.2 +/- 0.3 g); assay type: organism-based; details: in vivo
Oryctolagus cuniculus [15] = test: Toxicity in New Zealand white rabbit assessed as baseline heart rate at 1.79 umol/kg, administered as single bolus dose in presence of non selective adenosine receptor inhibitor SPT (reference value: 269 +/- 10 bpm); assay type: organism-based; details: in vivo
Oryctolagus cuniculus [16] = test: Toxicity in New Zealand white rabbit assessed as baseline heart rate at 3.58 umol/kg, administered as single bolus dose (reference value: 269 +/- 10 bpm); assay type: organism-based; details: in vivo
Oryctolagus cuniculus [17] = test: Toxicity in New Zealand white rabbit myocardial ischemia/reperfusion injury model assessed as heart rate at 1.79 umol/kg, administered as single bolus dose at 20 mins of sustained ischemia in presence of non selective adenosine receptor inhibitor SPT (reference value: 276 +/- 9 bpm); assay type: organism-based; details: in vivo
Oryctolagus cuniculus [18] = test: Toxicity in New Zealand white rabbit myocardial ischemia/reperfusion injury model assessed as heart rate at 3.58 umol/kg, administered as single bolus dose at 20 mins of sustained ischemia (reference value: 276 +/- 9 bpm); assay type: organism-based; details: in vivo
Oryctolagus cuniculus [19] = test: Toxicity in New Zealand white rabbit myocardial ischemia/reperfusion injury model assessed as heart rate at 1.79 umol/kg, administered as single bolus dose at 180 mins of reperfusion in presence of non selective adenosine receptor inhibitor SPT (reference value: 254 +/- 11 bpm); assay type: organism-based; details: in vivo, 3 h
Oryctolagus cuniculus [20] = test: Toxicity in New Zealand white rabbit myocardial ischemia/reperfusion injury model assessed as heart rate at 3.58 umol/kg, administered as single bolus dose at 180 mins of reperfusion (reference value: 254 +/- 11 bpm); assay type: organism-based; details: in vivo, 3 h
Oryctolagus cuniculus [21] = test: Toxicity in New Zealand white rabbit assessed as baseline mean blood pressure at 1.79 umol/kg, administered as single bolus dose in presence of SPT (reference value: 74 +/- 5 mmHg); assay type: organism-based; details: in vivo
Oryctolagus cuniculus [22] = test: Toxicity in New Zealand white rabbit assessed as baseline mean blood pressure at 3.58 umol/kg, administered as single bolus dose (reference value: 74 +/- 5 mmHg); assay type: organism-based; details: in vivo
Oryctolagus cuniculus [23] = test: Toxicity in New Zealand white rabbit myocardial ischemia/reperfusion injury model assessed as mean blood pressure at 1.79 umol/kg, administered as single bolus dose at 20 mins of sustained ischemia in presence of non selective adenosine receptor inhibitor SPT (reference value: 64 +/- 5 mmHg); assay type: organism-based; details: in vivo, iv
Oryctolagus cuniculus [24] = test: Toxicity in New Zealand white rabbit myocardial ischemia/reperfusion injury model assessed as mean blood pressure at 3.58 umol/kg, administered as single bolus dose at 20 mins of sustained ischemia (reference value: 64 +/- 5 mmHg); assay type: organism-based; details: in vivo
Oryctolagus cuniculus [25] = test: Toxicity in New Zealand white rabbit myocardial ischemia/reperfusion injury model assessed as mean blood pressure at 1.79 umol/kg, administered as single bolus dose at 180 mins of reperfusion in presence of SPT (reference value: 60 +/- 4 mmHg); assay type: organism-based; details: in vivo, 3 h
Oryctolagus cuniculus [26] = test: Toxicity in New Zealand white rabbit myocardial ischemia/reperfusion injury model assessed as mean blood pressure at 3.58 umol/kg, administered as single bolus dose at 180 mins of reperfusion (reference value: 60 +/- 4 mmHg); assay type: organism-based; details: in vivo, 3 h
Oryctolagus cuniculus [27] = test: as §1, with “20 mins before” for “20th min of”, “staining in presence of non selective adenosine receptor inhibitor SPT” for “staining”; assay type: functional, Myocardium; design: scale not given: the % may be the effect or the level left
Oryctolagus cuniculus [28] = test: Increase in VASP phosphorylation at Ser239 in tissue from ischemic area of myocardium in New Zealand white rabbit myocardial ischemia/reperfusion injury model at 1.79 umol/kg administered as single bolus dose at 10th min of reperfusion by Western blot analysis; assay type: functional, organism-based
Oryctolagus cuniculus [29] = test: Increase in PLN phosphorylation at Ser16/Thr17 in tissue from ischemic area of myocardium in New Zealand white rabbit myocardial ischemia/reperfusion injury model at 1.79 umol/kg administered as single bolus dose at 10th min of reperfusion by Western blot analysis relative to control; assay type: functional, organism-based
[30] = Induction of H2S release in potassium phosphate buffer at 100 uM at pH 7.4 by Amperometric method; assay type: physicochemical; details: pH 7.4, 100 µM
Oryctolagus cuniculus [31] = test: Toxicity in New Zealand white rabbit assessed as heart weight at 1.79 umol/kg, administered as single bolus dose in presence of NaHS (reference value: 7.2 +/- 0.3 g); assay type: organism-based; details: in vivo
Oryctolagus cuniculus [32] = test: Toxicity in New Zealand white rabbit assessed as baseline heart rate at 1.79 umol/kg, administered as single bolus dose in presence of NaHS (reference value: 269 +/- 10 bpm); assay type: organism-based; details: in vivo
Oryctolagus cuniculus [33] = test: Toxicity in New Zealand white rabbit myocardial ischemia/reperfusion injury model assessed as heart rate at 1.79 umol/kg, administered as single bolus dose at 20 mins of sustained ischemia in presence of NaHS (reference value: 276 +/- 9 bpm); assay type: organism-based; details: in vivo
Oryctolagus cuniculus [34] = test: Toxicity in New Zealand white rabbit myocardial ischemia/reperfusion injury model assessed as heart rate at 1.79 umol/kg, administered as single bolus dose at 180 mins of reperfusion in presence of NaHS (reference value: 254 +/- 11 bpm); assay type: organism-based; details: in vivo, iv, 3 h
Oryctolagus cuniculus [35] = test: Toxicity in New Zealand white rabbit assessed as baseline mean blood pressure at 1.79 umol/kg, administered as single bolus dose in presence of NaHS (reference value: 74 +/- 5 mmHg); assay type: organism-based; details: in vivo
Oryctolagus cuniculus [36] = test: Toxicity in New Zealand white rabbit myocardial ischemia/reperfusion injury model assessed as mean blood pressure at 1.79 umol/kg, administered as single bolus dose at 20 mins of sustained ischemia in presence of NaHS (reference value: 64 +/- 5 mmHg); assay type: organism-based; details: in vivo, iv
Oryctolagus cuniculus [37] = test: Toxicity in New Zealand white rabbit myocardial ischemia/reperfusion injury model assessed as mean blood pressure at 1.79 umol/kg, administered as single bolus dose at 180 mins of reperfusion in presence of NaHS (reference value: 60 +/- 4 mmHg); assay type: organism-based; details: in vivo, iv, 3 h
Oryctolagus cuniculus [38] = test: Cardioprotective activity in New Zealand white rabbit myocardial ischemia/reperfusion injury model assessed as reduction in infarct size at 1.79 umol/kg, administered as single bolus dose at 20th min of sustained ischemia by TTC staining in presence of NAHS (reference value: 47.9 +/- 0.7 %); assay type: functional, Myocardium; design: scale not given: the % may be the effect or the level left

SMILES | Activity (Oryctolagus cuniculus [2]) [g] | Activity (Oryctolagus cuniculus [3]) [bpm] | Activity (Oryctolagus cuniculus [4]) [bpm] | Activity (Oryctolagus cuniculus [5]) [bpm] | Activity (Oryctolagus cuniculus [6]) [mmHg] | Activity (Oryctolagus cuniculus [7]) [mmHg] | Activity (Oryctolagus cuniculus [8]) [mmHg] | Activity (Oryctolagus cuniculus [9]) [%] | Activity [10] | Activity (RLF-6 [11]) | Activity (Oryctolagus cuniculus [13]) [g] | Activity (Oryctolagus cuniculus [15]) [bpm] | Activity (Oryctolagus cuniculus [17]) [bpm] | Activity (Oryctolagus cuniculus [19]) [bpm] | Activity (Oryctolagus cuniculus [21]) [mmHg] | Activity (Oryctolagus cuniculus [23]) [mmHg] | Activity (Oryctolagus cuniculus [25]) [mmHg] | Activity (Oryctolagus cuniculus [27]) [%] | also measured
Nc1ncnc2c1ncn2CCCCO | 7.3 | 275 | 266 | 270 | 95 | 88 | 90 | 32.4 |  |  |  |  |  |  |  |  |  |  | Activity (RLF-6 [1]): inactive
Nc1ncnc2c1ncn2[C@@H]1O[C@H](COc2ccc(-c3cc(=S)ss3)cc2)[C@@H](O)[C@H]1O |  |  |  |  |  |  |  |  | Dose-dependent effect |  |  |  |  |  |  |  |  |  | 
CC1(C)O[C@@H]2[C@H](O1)[C@@H](COc1ccc(C(N)=S)cc1)O[C@H]2n1cnc2c(N)ncnc21 |  |  |  |  |  |  |  |  | Dose-dependent effect | Active |  |  |  |  |  |  |  |  | 
CC1(C)O[C@@H]2[C@H](O1)[C@@H](COc1ccc(-c3cc(=S)ss3)cc1)O[C@H]2n1cnc2c(N)ncnc21 |  |  |  |  |  |  |  |  | Dose-dependent effect |  |  |  |  |  |  |  |  |  | 
NC(=S)c1ccc(OCCCCn2cnc3c(N)ncnc32)cc1 | 7.2 | 266 | 276 | 255 | 90 | 82 | 80 | 16.6 | Dose-dependent effect | Active | 7.5 | 278 | 270 | 276 | 81 | 76 | 76 | 16.9 | Activity (Oryctolagus cuniculus [12]): 26.7%; Activity (Oryctolagus cuniculus [14]): 7.4 g; Activity (Oryctolagus cuniculus [16]): 285 bpm; Activity (Oryctolagus cuniculus [18]): 242 bpm; Activity (Oryctolagus cuniculus [20]): 258 bpm; Activity (Oryctolagus cuniculus [22]): 78 mmHg; Activity (Oryctolagus cuniculus [24]): 40 mmHg; Activity (Oryctolagus cuniculus [26]): 52 mmHg; Activity (Oryctolagus cuniculus [28]): Active; Activity (Oryctolagus cuniculus [29]): Active
NC(=O)c1ccc(OCCCCn2cnc3c(N)ncnc32)cc1 | 7.3 | 260 | 258 | 262 | 77 | 75 | 71 | 26.6 |  |  | 7.1 | 278 | 259 | 268 | 82 | 76 | 72 | 41.8 | Activity [30]: Not Active; Activity (Oryctolagus cuniculus [31]): 7.4 g; Activity (Oryctolagus cuniculus [32]): 268 bpm; Activity (Oryctolagus cuniculus [33]): 272 bpm; Activity (Oryctolagus cuniculus [34]): 252 bpm; Activity (Oryctolagus cuniculus [35]): 79 mmHg; Activity (Oryctolagus cuniculus [36]): 65 mmHg; Activity (Oryctolagus cuniculus [37]): 67 mmHg; Activity (Oryctolagus cuniculus [38]): 22.3%
